Measurements reported in patent US4362725A, “Cephalosporins” (Dr. Karl Thomae Gesellschaft mit beschrankter Haftung, priority 1980, dated 1982).
Values after ≈ are worked out from the molar mass of the structure shown.

Tests used:
[1] = test system: Staphylococcus aureus SG 511; assay: In vitro serial dilution test in the microtiter system (MIC), S. aureus; type: cell-based; details: SG511, 18 to 20 h at 37° C.
Procedure: (§1) The tests were performed using the serial dilution test in the microtiter system. The effect of the test compound on bacteristasis was examined in a liquid medium at the following concentrations: >64, 64 32, 16, 8, 4, 2, 1, 0.5, 0.25, 0.125, 0.06, 0.03 and 0.015 μgm/ml. The nutrient medium consisted of 10 gm of peptone, 8 gm of meat extract oxoid, 3 gm of sodium chloride, and 2 gm of sec. sodium phosphate diluted with distilled water to […] (pH 7.2-7.4). Only in the test against streptococci 1% of glucose was added. The age of the primary cultures was approximately 20 hours. The standardization of the bacteria suspension was effected using a photometer according to the method of Eppendorf (test tube .phi.-mm, filter 546 nm), using for comparison a barium sulfate suspension formed by the addition of 3.0 ml of 1% barium chloride solution to 97 ml of 1% sulfuric acid. After standardization, the test microorganisms were further diluted to a concentration of 1:1500, using a sodium chloride solution.
(§2) 16 mgm of the particular test compound were put into a 10 ml measuring flask, and the flask was subsequently filled to the mark with solvent. The further dilution series was standardized with distilled water or the appropriate solvent.
(§3) The cavities of the microtiter plates were filled with 0.2 ml of nutrient medium. 0.01 ml of the appropriate test compound solution was then added, followed by inoculation with 0.01 ml (1 drop) of the standardized bacteria suspension. The bacteria were incubated at 37° C. for 18 to 20 hours. Control tests using only the solvent were carried out simultaneously.
(§4) The readings were made macroscopically to determine the minimum inhibitory concentration (the lowest still bacteriostatically effective concentration).
(§5) The following test organisms were used:
(§6) Staphylococcus aureus SG 511, Escherichia coli ATCC11 775, Pseudomonas aeruginosa hamburgensis and Pseudomonas aeruginosa BC 19, Serratia marcescens ATCC 13 880, Klebsiella pneumoniae ATCC 10 031 and BC 6, Proteus mirabilis BC 17, Proteus rettgeri BC 7, Enterobacter Cloaceae ATCC 13047 and E. coli R+TEM (β-lactamase carrier).

[2] = test system: Escherichia coli ATCC11 775; assay: In vitro serial dilution test in the microtiter system (MIC), E. coli; type: cell-based; details: 18 to 20 h at 37° C., read-out: MIC E. coli ATCC 11775
Procedure: as §1, §2, §3, §4, §5, §6

[3] = test system: Pseudomonas aeruginosa hamburgensis; assay: In vitro serial dilution test in the microtiter system (MIC), Pseudomonas Hbg.; type: cell-based; details: 18 to 20 h at 37° C., read-out: MIC Pseud. aerug. Hbg.
Procedure: as §1, §2, §3, §4, §5, §6

[4] = test system: Pseudomonas aeruginosa BC 19; assay: In vitro serial dilution test in the microtiter system (MIC), Pseudomonas BC 19; type: cell-based; details: BC19, 18 to 20 h at 37° C., read-out: MIC Pseud. aerug. BC 19
Procedure: as §1, §2, §3, §4, §5, §6

[5] = test system: Klebsiella pneumoniae ATCC 10 031; assay: In vitro serial dilution test in the microtiter system (MIC), Klebsiella ATCC 10031; type: cell-based; details: 18 to 20 h at 37° C., read-out: MIC Klebs. pneum. ATCC 10031
Procedure: as §1, §2, §3, §4, §5, §6

[6] = test system: Klebsiella pneumoniae BC 6; assay: In vitro serial dilution test in the microtiter system (MIC), Klebsiella BC 6; type: cell-based; details: BC6, 18 to 20 h at 37° C., read-out: MIC Klebs. pneum. BC 6
Procedure: as §1, §2, §3, §4, §5, §6

Proteus mirabilis BC 17 = assay: In vitro serial dilution test in the microtiter system (MIC), Proteus mirabilis; type: cell-based; details: BC17, 18 to 20 h at 37° C., read-out: MIC Prot. mir. BC 17
Procedure: as §1, §2, §3, §4, §5, §6

Proteus rettgeri BC 7 = assay: In vitro serial dilution test in the microtiter system (MIC), Proteus rettgeri; type: cell-based; details: Providencia rettgeri, BC7; 18 to 20 h at 37° C.; read-out: MIC Prot. rettg. BC 7
Procedure: as §1, §2, §3, §4, §5, §6

[7] = test system: Enterobacter Cloaceae ATCC 13047; assay: In vitro serial dilution test in the microtiter system (MIC), Enterobacter; type: cell-based; details: ATCC13047, 18 to 20 h at 37° C., read-out: MIC Eb. cloaceae
Procedure: as §1, §2, §3, §4, §5, §6

[8] = test system: E. coli R+TEM (β-lactamase carrier); assay: In vitro serial dilution test in the microtiter system (MIC), E. coli R+TEM; type: cell-based; details: Escherichia coli, read-out: MIC E. coli R + TEM
Procedure: as §1, §2, §3, §4, §5, §6

[9] = test system: Serratia marcescens ATCC 13 880; assay: In vitro serial dilution test in the microtiter system (MIC), Serratia; type: cell-based; details: 18 to 20 h at 37° C., read-out: MIC Ser. marcesc. ATCC 13880
Procedure: as §1, §2, §3, §4, §5, §6

E. coli ATCC 11 775 = assay: In vivo activity in mice, experimental E. coli infection; set-up: species or system mice (female, NMRI strain); details: Escherichia coli, ATCC11, sc, 168 h; s.c., once 1 hour after i.p. E. coli infection; 7 days observation; read-out: ED50 (dose at which 50% of the animals survive)
Procedure: (§7) Several of the compounds of this invention were tested in vivo against experimental infections in mice. E. coli ATCC 11 775 and Pseudomonas aeruginosa BC 19 were used as the pathogenic bacteria. An interaperitoneal infection was induced with 0.2 ml of a bacterial suspension (containing 5% of mucin). This corresponds to approximately 1.4×10^6 E. coli germs or to 1.3×10^6 pseudomonas germs per mouse. Female mice of the NMRI strain were divided up into groups of 10 animals of which 2 groups remained untreated while the remaining groups were subcutaneously administered various doses of the particular cephalosporins according to the invention for the purpose of determining the ED50 (dose at which 50% of the animals survive). In the case of the E. coli infection, the treatment was applied once (1 hour after infection) while the pseudomonas infection was treated 3 times (1, 3 and 5 hours after infection).
(§8) In both cases, the observation period was 7 days. The results of these tests, carried out with typical representatives of the cephalosporins according to the invention, are shown in Table 3 below.

[10] = test system: Pseudomonas aeruginosa BC 19; assay: In vivo activity in mice, experimental Pseudomonas infection; set-up: species or system mice (female, NMRI strain); details: BC19, sc, 168 h, per dose, s.c., 3 times (1, 3 and 5 hours after i.p. Pseudomonas infection), 7 days observation, read-out: ED50 (dose at which 50% of the animals survive)
Procedure: as §7, §8

SMILES | MIC [1] | MIC [2] | MIC [3] | MIC [4] | MIC [5] | MIC [6] | MIC (Proteus mirabilis BC 17) | MIC (Proteus rettgeri BC 7) | MIC [7] | MIC [8] | MIC [9] | ED50 (E. coli ATCC 11 775) | ED50 [10]
CO/N=C(\C(=O)N[C@@H]1C(=O)N2C(C(=O)O)=C(COC(N)=O)CS[C@H]12)c1ccco1 [Cefuroxim, reference compound] | 1 µg/mL (≈ 2.36 µM) | 8 µg/mL (≈ 18.9 µM) | > 100 µg/mL | > 100 µg/mL | 2 µg/mL (≈ 4.71 µM) | 4 µg/mL (≈ 9.43 µM) | 0.5 µg/mL (≈ 1.18 µM) | 2 µg/mL (≈ 4.71 µM) | 32 µg/mL (≈ 75.4 µM) | 4 µg/mL | 8 µg/mL (≈ 18.9 µM) | > 100 mg/kg | –
Cc1nnc(SCC2=C(C(=O)O)N3C(=O)[C@@H](NC(=O)Cn4cnnn4)[C@H]3SC2)s1 [Cephazolin, reference compound] | 0.06 µg/mL (≈ 0.132 µM) | 4 µg/mL (≈ 8.8 µM) | > 100 µg/mL | > 100 µg/mL | 1 µg/mL (≈ 2.2 µM) | 2 µg/mL (≈ 4.4 µM) | 4 µg/mL (≈ 8.8 µM) | > 100 µg/mL | > 100 µg/mL | 4 µg/mL | > 100 µg/mL | – | –
NS(=O)(=O)c1ccc(Nc2ncc(NC(=O)NC(C(=O)N[C@@H]3C(=O)N4C(C(=O)O)=C(CSc5nnnn5CC(=O)O)CS[C@H]34)c3ccc(O)cc3)c(O)n2)cc1 (stereo partly drawn) [Compound 5] | 4 µg/mL (≈ 4.83 µM) | 0.5 µg/mL (≈ 0.603 µM) | 8 µg/mL (≈ 9.65 µM) | 8 µg/mL (≈ 9.65 µM) | 0.5 µg/mL (≈ 0.603 µM) | 0.5 µg/mL (≈ 0.603 µM) | 0.12 µg/mL (≈ 0.145 µM) | 0.25 µg/mL (≈ 0.302 µM) | 2 µg/mL (≈ 2.41 µM) | 32 µg/mL | 0.5 µg/mL (≈ 0.603 µM) | – | –
NS(=O)(=O)c1ccc(Nc2ncc(NC(=O)NC(C(=O)N[C@@H]3C(=O)N4C(C(=O)O)=C(CSc5nnnn5CCO)CS[C@H]34)c3ccc(O)cc3)c(O)n2)cc1 (stereo partly drawn) [Compound 7] | 1 µg/mL (≈ 1.23 µM) | 0.03 µg/mL (≈ 0.0368 µM) | 4 µg/mL (≈ 4.91 µM) | 4 µg/mL (≈ 4.91 µM) | 0.12 µg/mL (≈ 0.147 µM) | 0.12 µg/mL (≈ 0.147 µM) | 0.06 µg/mL (≈ 0.0736 µM) | 0.25 µg/mL (≈ 0.307 µM) | 0.25 µg/mL (≈ 0.307 µM) | 4 µg/mL | 0.12 µg/mL (≈ 0.147 µM) | ~0.3 mg/kg | 6.3 mg/kg
Cn1c(SCC2=C(C(=O)O)N3C(=O)[C@@H](NC(=O)C(NC(=O)Nc4cnc(Nc5ccc(S(N)(=O)=O)cc5)nc4O)c4ccc(O)cc4)[C@H]3SC2)nnc(O)c1=O (stereo partly drawn) [Compound 16] | 0.12 µg/mL (≈ 0.145 µM) | 0.12 µg/mL (≈ 0.145 µM) | 8 µg/mL (≈ 9.66 µM) | 4 µg/mL (≈ 4.83 µM) | 0.12 µg/mL (≈ 0.145 µM) | 0.25 µg/mL (≈ 0.302 µM) | 0.12 µg/mL (≈ 0.145 µM) | 0.25 µg/mL (≈ 0.302 µM) | 0.25 µg/mL (≈ 0.302 µM) | 4 µg/mL | 0.25 µg/mL (≈ 0.302 µM) | ~0.8 mg/kg | 10 to 20 mg/kg
C[S+]([O-])CCn1nnnc1SCC1=C(C(=O)O)N2C(=O)[C@@H](NC(=O)C(NC(=O)Nc3cnc(Nc4ccc(S(N)(=O)=O)cc4)nc3O)c3ccc(O)cc3)[C@H]2SC1 (stereo partly drawn) [Compound 21] | 1 µg/mL (≈ 1.16 µM) | 0.12 µg/mL (≈ 0.139 µM) | 8 µg/mL (≈ 9.29 µM) | 8 µg/mL (≈ 9.29 µM) | 0.25 µg/mL (≈ 0.29 µM) | 0.25 µg/mL (≈ 0.29 µM) | 0.12 µg/mL (≈ 0.139 µM) | 0.5 µg/mL (≈ 0.581 µM) | – | 8 µg/mL | 0.25 µg/mL (≈ 0.29 µM) | – | –
CS(=O)(=O)CCn1nnnc1SCC1=C(C(=O)O)N2C(=O)[C@@H](NC(=O)C(NC(=O)Nc3cnc(Nc4ccc(S(N)(=O)=O)cc4)nc3O)c3ccc(O)cc3)[C@H]2SC1 (stereo partly drawn) [Compound 30] | 2 µg/mL (≈ 2.28 µM) | 0.12 µg/mL (≈ 0.137 µM) | 8 µg/mL (≈ 9.12 µM) | 4 µg/mL (≈ 4.56 µM) | 0.5 µg/mL (≈ 0.57 µM) | 0.5 µg/mL (≈ 0.57 µM) | 0.06 µg/mL (≈ 0.0684 µM) | 1 µg/mL (≈ 1.14 µM) | 0.5 µg/mL (≈ 0.57 µM) | 8 µg/mL | 0.5 µg/mL (≈ 0.57 µM) | ~0.6 mg/kg | 10 to 20 mg/kg
CS(=O)(=O)NCCn1nnnc1SCC1=C(C(=O)O)N2C(=O)[C@@H](NC(=O)C(NC(=O)Nc3cnc(Nc4ccc(S(N)(=O)=O)cc4)nc3O)c3ccc(O)cc3)[C@H]2SC1 (stereo partly drawn) [Compound 36] | 2 µg/mL (≈ 2.24 µM) | 0.03 µg/mL (≈ 0.0336 µM) | 4 µg/mL (≈ 4.48 µM) | 2 µg/mL (≈ 2.24 µM) | 0.12 µg/mL (≈ 0.135 µM) | 0.12 µg/mL (≈ 0.135 µM) | 0.06 µg/mL (≈ 0.0673 µM) | 0.25 µg/mL (≈ 0.28 µM) | 0.12 µg/mL (≈ 0.135 µM) | 8 µg/mL | 0.25 µg/mL (≈ 0.28 µM) | – | –
CC(=O)NCCn1nnnc1SCC1=C(C(=O)O)N2C(=O)[C@@H](NC(=O)C(NC(=O)Nc3cnc(Nc4ccc(S(N)(=O)=O)cc4)nc3O)c3ccc(O)cc3)[C@H]2SC1 (stereo partly drawn) [Compound 37] | 2 µg/mL (≈ 2.34 µM) | 0.12 µg/mL (≈ 0.14 µM) | 8 µg/mL (≈ 9.35 µM) | 4 µg/mL (≈ 4.67 µM) | 0.12 µg/mL (≈ 0.14 µM) | 0.12 µg/mL (≈ 0.14 µM) | 0.06 µg/mL (≈ 0.0701 µM) | 0.25 µg/mL (≈ 0.292 µM) | 0.12 µg/mL (≈ 0.14 µM) | 8 µg/mL | 0.12 µg/mL (≈ 0.14 µM) | – | –
